According to patent US20100298141A1, “SUBSTITUTED PYRIDINE N-OXIDE HERBICIDES” (E. I. DU PONT DE NEMOURS AND COMPANY, priority 2007, published 2010):

Columns and labels:
barnyardgrass = assay: Test A pre-/postemergence greenhouse test; type: in vivo, Echinochloa crus-galli; conditions: for Plant response rating, Barnyardgrass: 0 to 100 scale where 0 is no effect and 100 is complete control; for Barnyardgrass plant response rating: 0 to 100 scale
Method in brief: (§1)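 Two application timings were run side by side in the greenhouse. Before emergence, compound went onto the soil surface of loam–sand pots as a directed spray; after emergence, plants at 2–10 cm and the one- to two-leaf stage were treated. Visual injury versus controls was rated at approximately day ten.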

redroot pigweed = assay: Test A pre-/postemergence greenhouse test; type: in vivo, Amaranthus retroflexus; conditions: for Plant response rating, Pigweed: 0 to 100 scale where 0 is no effect and 100 is complete control; for Pigweed plant response rating: 0 to 100 scale
Method in brief: as §1

velvetleaf [1] = assay: Test A pre-/postemergence greenhouse test; type: in vivo, Abutilon theophrasti; conditions: for Plant response rating, Velvetleaf: 0 to 100 scale where 0 is no effect and 100 is complete control; for Velvetleaf plant response rating: 0 to 100 scale
Method in brief: as §1

downy brome = assay: Test C pre-/postemergence test; type: in vivo, Bromus tectorum
Method in brief: (§2)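 Compounds in a non-phytotoxic solvent with surfactant applied preemergence to seeded pots and, at the same time, postemergence to plants 2–18 cm tall (1- to 4-leaf stage). Paddy tests: pots flooded to 3 cm, compound applied into the water, depth held throughout.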

green foxtail = assay: Test C pre-/postemergence test; type: in vivo, Setaria viridis
Method in brief: as §2

wild oat = assay: Test C pre-/postemergence test; type: in vivo, Avena fatua
Method in brief: as §2

Surinam grass = assay: Test C pre-/postemergence test; type: in vivo, Brachiaria decumbens
Method in brief: as §2

cocklebur = assay: Test C pre-/postemergence test; type: in vivo, Xanthium strumarium; conditions: for Cocklebur plant response rating: preemergence, scale 0 (no effect) to 100 (complete control)
Method in brief: as §2

crabgrass = assay: Test C pre-/postemergence test; type: in vivo, Digitaria sanguinalis
Method in brief: as §2

giant foxtail = assay: Test C pre-/postemergence test; type: in vivo, Setaria faberii
Method in brief: as §2

johnsongrass = assay: Test C pre-/postemergence test; type: in vivo, Sorghum halepense
Method in brief: as §2

kochia = assay: Test C pre-/postemergence test; type: in vivo, Kochia scoparia
Method in brief: as §2

lambsquarters = assay: Test C pre-/postemergence test; type: in vivo, Chenopodium album
Method in brief: as §2

eastern black nightshade = assay: Test C pre-/postemergence test; type: in vivo, Solanum ptycanthum
Method in brief: as §2

common ragweed = assay: Test C pre-/postemergence test; type: in vivo, Ambrosia elation
Method in brief: as §2

velvetleaf [2] = assay: Test C pre-/postemergence test; type: in vivo, Abutilon theophrasti
Method in brief: as §2

rice = assay: Test C flooded paddy test; type: in vivo, Oryza sativa; conditions: Flood
Method in brief: (§3)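 Test compounds are applied straight into paddy water held 3 cm above the soil surface, with that flood maintained for the whole test. After 13 to 15 days in the greenhouse, each species is scored visually relative to controls.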

duck salad = assay: Test C flooded paddy test; type: in vivo, Heteranthera limosa; conditions: Flood
Method in brief: as §3

[3] = Postemergence, 500 g ai/ha, 0 is no effect, 100 is complete control
[4] = Preemergence, 125 g ai/ha, 0 no effect, 100 complete control
[5] = 62 g ai/ha, Preemergence, scale 0 to 100
[6] = 125 g ai/ha, preemergence, scale 0 (no effect) to 100 (complete control)
[7] = Postemergence, 62 g ai/ha, scale 0 to 100, 0 no effect, 100 complete control
[8] = Postemergence, 125 g ai/ha, scale 0 to 100, 0 no effect, 100 complete control
[9] = Postemergence, 250 g ai/ha, scale 0 to 100, 0 no effect, 100 complete control
[10] = Preemergence, 31 g ai/ha, scale 0 to 100 (0 no effect, 100 complete control)
[11] = preemergence, 250 g ai/ha, scale 0 (no effect) to 100 (complete control)
[12] = 62 g ai/ha, scale 0 to 100 (0 no effect, 100 complete control)
[13] = 250 g ai/ha, scale 0 to 100, 0 no effect, 100 complete control, 13 to 15 days

SMILES: Cn1nc(C(F)(F)F)c(C[S+]([O-])c2ccc(Cl)c[n+]2[O-])c1OCC(F)(F)F (racemic) [Compound 62]
- Plant response rating, Barnyardgrass (barnyardgrass; Postemergence, 125 g ai/ha): 80
- Barnyardgrass plant response rating (barnyardgrass; [3]): 90
- Barnyardgrass plant response rating (barnyardgrass; [4]): 90
- Plant response rating, Barnyardgrass (barnyardgrass; Preemergence, 500 g ai/ha): 100
- Plant response rating, Pigweed (redroot pigweed; Postemergence, 125 g ai/ha): 60
- Pigweed plant response rating (redroot pigweed; [3]): 80
- Pigweed plant response rating (redroot pigweed; [4]): 100
- Plant response rating, Pigweed (redroot pigweed; Preemergence, 500 g ai/ha): 100
- Plant response rating, Velvetleaf (velvetleaf [1]; Postemergence, 125 g ai/ha): 60
- Velvetleaf plant response rating (velvetleaf [1]; [3]): 90
- Velvetleaf plant response rating (velvetleaf [1]; [4]): 100
- Plant response rating, Velvetleaf (velvetleaf [1]; Preemergence, 500 g ai/ha): 100
- Bromegrass, Downy plant response rating (downy brome; [5]): 50
- Bromegrass, Downy plant response rating (downy brome; [6]): 70
- Plant response rating (0 to 100), Bromegrass, Downy (downy brome; Postemergence, 31 g ai/ha): 0
- Plant response rating, Bromegrass, Downy (downy brome; [7]): 0
- Plant response rating, Bromegrass, Downy (downy brome; [8]): 45
- Plant response rating, Bromegrass, Downy (downy brome; [9]): 60
- Plant response rating, Bromegrass, Downy (downy brome; [10]): 50
- Bromegrass, Downy plant response rating (downy brome; [11]): 85
- Foxtail, Green plant response rating (green foxtail; [5]): 100
- Foxtail, Green plant response rating (green foxtail; [6]): 100
- Plant response rating (0 to 100), Foxtail, Green (green foxtail; Postemergence, 31 g ai/ha): 0
- Plant response rating, Foxtail, Green (green foxtail; [7]): 20
- Plant response rating, Foxtail, Green (green foxtail; [8]): 40
- Plant response rating, Foxtail, Green (green foxtail; [9]): 80
- Plant response rating, Foxtail, Green (green foxtail; [10]): 80
- Foxtail, Green plant response rating (green foxtail; [11]): 100
- Oat, Wild plant response rating (wild oat; [5]): 85
- Oat, Wild plant response rating (wild oat; [6]): 95
- Plant response rating (0 to 100), Oat, Wild (wild oat; Postemergence, 31 g ai/ha): 0
- Plant response rating, Oat, Wild (wild oat; [7]): 0
- Plant response rating, Oat, Wild (wild oat; [8]): 30
- Plant response rating, Oat, Wild (wild oat; [9]): 50
- Plant response rating, Oat, Wild (wild oat; [10]): 70
- Oat, Wild plant response rating (wild oat; [11]): 100
- Surinam Grass plant response rating (Surinam grass; [5]): 98
- Surinam Grass plant response rating (Surinam grass; [6]): 100
- Plant response rating (0 to 100), Surinam Grass (Surinam grass; Postemergence, 31 g ai/ha): 0
- Plant response rating (0 to 100), Surinam Grass (Surinam grass; Postemergence, 62 g ai/ha): 0
- Plant response rating, Surinam Grass (Surinam grass; [8]): 0
- Plant response rating, Surinam Grass (Surinam grass; [9]): 60
- Plant response rating, Surinam Grass (Surinam grass; [10]): 80
- Surinam Grass plant response rating (Surinam grass; [11]): 100
- Cocklebur plant response rating (cocklebur; 125 g ai/ha): 30
- Plant response rating (0 to 100), Cocklebur (cocklebur; Postemergence, 31 g ai/ha): 0
- Plant response rating, Cocklebur (cocklebur; [7]): 0
- Plant response rating, Cocklebur (cocklebur; [8]): 0
- Plant response rating, Cocklebur (cocklebur; [9]): 0
- Plant response rating, Cocklebur (cocklebur; [10]): 0
- Cocklebur plant response rating (cocklebur; 250 g ai/ha): 60
- Crabgrass, Large plant response rating (crabgrass; [5]): 80
- Crabgrass, Large plant response rating (crabgrass; [6]): 100
- Plant response rating (0 to 100), Crabgrass, Large (crabgrass; Postemergence, 31 g ai/ha): 0
- Plant response rating, Crabgrass, Large (crabgrass; [7]): 0
- Plant response rating, Crabgrass, Large (crabgrass; [8]): 0
- Plant response rating, Crabgrass, Large (crabgrass; [9]): 50
- Plant response rating, Crabgrass, Large (crabgrass; [10]): 60
- Crabgrass, Large plant response rating (crabgrass; [11]): 100
- Foxtail, Giant plant response rating (giant foxtail; [5]): 100
- Foxtail, Giant plant response rating (giant foxtail; [6]): 100
- Plant response rating (0 to 100), Foxtail, Giant (giant foxtail; Postemergence, 31 g ai/ha): 0
- Plant response rating, Foxtail, Giant (giant foxtail; [7]): 0
- Plant response rating, Foxtail, Giant (giant foxtail; [8]): 40
- Plant response rating, Foxtail, Giant (giant foxtail; [9]): 70
- Plant response rating, Foxtail, Giant (giant foxtail; [10]): 70
- Foxtail, Giant plant response rating (giant foxtail; [11]): 100
- Johnsongrass plant response rating (johnsongrass; [5]): 100
- Johnsongrass plant response rating (johnsongrass; [6]): 100
- Plant response rating (0 to 100), Johnsongrass (johnsongrass; Postemergence, 31 g ai/ha): 0
- Plant response rating, Johnsongrass (johnsongrass; [7]): 0
- Plant response rating, Johnsongrass (johnsongrass; [8]): 0
- Plant response rating, Johnsongrass (johnsongrass; [9]): 0
- Plant response rating, Johnsongrass (johnsongrass; [10]): 70
- Johnsongrass plant response rating (johnsongrass; [11]): 100
- Kochia plant response rating (kochia; [5]): 90
- Kochia plant response rating (kochia; [6]): 100
- Plant response rating (0 to 100), Kochia (kochia; Postemergence, 31 g ai/ha): 0
- Plant response rating, Kochia (kochia; [7]): 0
- Plant response rating, Kochia (kochia; [8]): 0
- Plant response rating, Kochia (kochia; [9]): 10
- Plant response rating, Kochia (kochia; [10]): 85
- Kochia plant response rating (kochia; [11]): 100
- Lambsquarters plant response rating (lambsquarters; [5]): 100
- Lambsquarters plant response rating (lambsquarters; [6]): 100
- Plant response rating (0 to 100), Lambsquarters (lambsquarters; Postemergence, 31 g ai/ha): 0
- Plant response rating, Lambsquarters (lambsquarters; [7]): 0
- Plant response rating, Lambsquarters (lambsquarters; [8]): 0
- Plant response rating, Lambsquarters (lambsquarters; [9]): 0
- Plant response rating, Lambsquarters (lambsquarters; [10]): 100
- Lambsquarters plant response rating (lambsquarters; [11]): 100
- Nightshade plant response rating (eastern black nightshade; [5]): 100
- Nightshade plant response rating (eastern black nightshade; [6]): 100
- Plant response rating, Nightshade (eastern black nightshade; [10]): 100
- Nightshade plant response rating (eastern black nightshade; [11]): 100
- Ragweed plant response rating (common ragweed; [5]): 100
- Ragweed plant response rating (common ragweed; [6]): 100
- Plant response rating (0 to 100), Ragweed (common ragweed; Postemergence, 31 g ai/ha): 0
- Plant response rating (0 to 100), Ragweed (common ragweed; Postemergence, 62 g ai/ha): 0
- Plant response rating, Ragweed (common ragweed; [8]): 0
- Plant response rating, Ragweed (common ragweed; [9]): 0
- Plant response rating, Ragweed (common ragweed; [10]): 100
- Ragweed plant response rating (common ragweed; [11]): 100
- Velvetleaf plant response rating (velvetleaf [2]; [5]): 90
- Velvetleaf plant response rating (velvetleaf [2]; [6]): 100
- Plant response rating (0 to 100), Velvetleaf (velvetleaf [2]; Postemergence, 31 g ai/ha): 0
- Plant response rating (0 to 100), Velvetleaf (velvetleaf [2]; Postemergence, 62 g ai/ha): 0
- Plant response rating, Velvetleaf (velvetleaf [2]; [8]): 5
- Plant response rating, Velvetleaf (velvetleaf [2]; [9]): 40
- Plant response rating, Velvetleaf (velvetleaf [2]; [10]): 40
- Velvetleaf plant response rating (velvetleaf [2]; [11]): 100
- Plant response rating, Rice (rice; [12]): 60
- Plant response rating, Rice (rice; [13]): 90
- Plant response rating, Ducksalad (duck salad; [12]): 70
- Plant response rating, Ducksalad (duck salad; [13]): 85
